A short description of data set [1]: Solubility (physiochemical properties). It is filed as physicochemical. Conditions: solvents in which the compound is soluble.
The next data set has as its target alpha-glucosidase. Also noted: method as in doi:10.1007/s00044-022-02883-1. Conditions: earlier series; cited from earlier work.
Data set [2] has as its target T1, alpha-Glucosidase (Cat No. 5003-1KU Type I) (Saccharomyces cerevisiae, UniProt P53341).
T1 construct: purchased 5003-1KU Type I
Nature of the data set: biochemical. Conditions: for inhibition at 500 µM: pH 6.8, read-out: % Inhibition at 0.5 mM. As to the method: It actively works in the intestinal tract by inhibiting alpha-glucosidase, which is responsible for the conversion of complex carbohydrates to absorbable glucose. […] Therefore, an alpha-glucosidase inhibition assay of newly synthesized amino benzotriazinones 11a–11b and their corresponding sulfonamides 12a–12f was carried out by spectrophotometric method.
Alpha-glucosidase inhibition activity was carried out by the Pierre et al. method with slight modifications, and alpha-Glucosidase (Cat No. 5003-1KU Type I) from Saccharomyces cereviciae was utilized for the experimental protocol due to its resemblances to the structure and function of yeast/mammalian enzyme. For test, saline phosphate buffer (70 μL, 50 mM with pH 6.8), alpha-glucosidase enzyme (10 μL, 0.0234 units) and test compound (10 μL, 0.5 mM) were taken in test tubes and incubated for 10 min at 37 °C. Absorbance of these prepared samples was recorded at 400 nm. 10 μL p-nitrophenyl-alpha-D-glucopyranoside (0.5 mM, ‘substrate’, code No. N1377 from Sigma) was used to initiate the reaction and test tubes were allowed to stand for 30 min. Then, the variation in concentration of free substrate was noted by the change in absorbance. The enzyme percentage inhibition was estimated by the following formula and IC50 values were calculated by ‘EZ-Fit enzyme kinetics software. % Inhibition = [([…])/Abs. of control] × 100

In general, IC50 refers to the midpoint of a concentration-inhibition curve. One may read the melting point as the temperature, or range, at which the solid turns liquid. The inhibition is how much of the control response was suppressed. In general, % Inhibition refers to the share of the control response that was lost under treatment.

T1 sequence (P53341 whole entry): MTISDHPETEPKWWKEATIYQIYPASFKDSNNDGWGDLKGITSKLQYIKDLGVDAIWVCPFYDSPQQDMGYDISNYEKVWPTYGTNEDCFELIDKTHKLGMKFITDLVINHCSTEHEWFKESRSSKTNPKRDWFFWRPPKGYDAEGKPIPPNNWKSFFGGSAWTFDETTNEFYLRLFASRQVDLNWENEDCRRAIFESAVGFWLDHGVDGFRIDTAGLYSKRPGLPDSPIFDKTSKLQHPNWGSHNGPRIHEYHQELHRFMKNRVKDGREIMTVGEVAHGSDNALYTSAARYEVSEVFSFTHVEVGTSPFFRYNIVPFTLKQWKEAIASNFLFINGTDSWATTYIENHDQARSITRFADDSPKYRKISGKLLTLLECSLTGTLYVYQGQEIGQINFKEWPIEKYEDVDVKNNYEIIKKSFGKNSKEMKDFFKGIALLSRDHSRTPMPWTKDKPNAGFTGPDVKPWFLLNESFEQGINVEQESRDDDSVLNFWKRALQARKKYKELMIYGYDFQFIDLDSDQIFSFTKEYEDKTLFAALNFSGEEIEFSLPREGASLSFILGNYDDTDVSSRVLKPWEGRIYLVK

As to 6-Nitroisatoic Anhydride [Compound 8], the Solubility entry in data set [1] is given as “Ethanol, DMSO”.
As for `Cc1ccc(NS(=O)(=O)c2ccc(-n3nnc4ccccc4c3=O)cc2)cc1C` [Compound 4], the IC50 at alpha-glucosidase was 29.75 ± 0.14 µM.
As for `CCCNC(=O)c1cc([N+](=O)[O-])ccc1N` [Compound 9a, 2-Amino-5-nitro-N-propylbenzamide], the melting point was 195 to 197 °C. Besides, the Solubility entry in data set [1] is given as “Ethanol, DMSO”.
Consider `CCCCNC(=O)c1cc([N+](=O)[O-])ccc1N` [Compound 9b, 2-Amino-5-nitro-N-butylbenzamide], for which the melting point was 197 to 199 °C. In addition, in data set [1], the Solubility result was “Ethanol, DMSO”.
For the molecule `CCCn1nnc2ccc([N+](=O)[O-])cc2c1=O` [Compound 10a, 6-Nitro-3-propylbenzo[1,2,3]triazin-4(3H)-one], the melting point lay in the range of 215 to 217 °C. In addition, in data set [1], the Solubility result was “Ethanol, DMSO”.
Molecule `CCCCn1nnc2ccc([N+](=O)[O-])cc2c1=O` [Compound 10b, 6-Nitro-3-butylbenzo[1,2,3]triazin-4(3H)-one] displayed a melting point of 217 to 218 °C. For the same molecule, the Solubility entry in data set [1] is reported as “Ethanol, DMSO”.
In the case of `CCCn1nnc2ccc(N)cc2c1=O` [Compound 11a, 6-Amino-3-propylbenzo[1,2,3]triazin-4(3H)-one], the melting point is 185 to 186 °C. For the same molecule, the inhibition at 500 µM in data set [2] was 26.12 ± 0.13%. Besides, the Solubility result in data set [1] is recorded as “Methanol, DMSO”.
For the molecule `CCCCn1nnc2ccc(N)cc2c1=O` [Compound 11b, 6-Amino-3-butylbenzo[1,2,3]triazin-4(3H)-one], the melting point fell in the range of 191 to 192 °C. In data set [2], the inhibition at 500 µM is 27.12 ± 0.13%. Also, the Solubility entry in data set [1] is given as “Methanol, DMSO”.
In turn, `CCCn1nnc2ccc(NS(=O)(=O)c3ccccc3)cc2c1=O` [Compound 12a, N-(4-Oxo-3-propyl-3,4-dihydrobenzo[1,2,3]triazin-6-yl)benzenesulfonamide] gave a melting point of 171 to 173 °C. In addition, the inhibition at 500 µM in data set [2] turned out to be 51.25 ± 0.16%. Besides, the Solubility entry in data set [1] is on record as “Ethanol, DMSO”.
With `CCCn1nnc2ccc(NS(=O)(=O)c3ccc(OC)cc3)cc2c1=O` [Compound 12b, 4-Methoxy-N-(4-oxo-3-propyl-3,4-dihydrobenzo[1,2,3]triazin-6-yl)benzenesulfonmide], the melting point fell in the range of 175 to 177 °C. For the same molecule, in data set [2], half-maximal inhibition (IC50) required 39.21 ± 0.12 µM and the inhibition at 500 µM was found to be 91.73 ± 0.17%. The Solubility result in data set [1] is “Ethanol, DMSO”.
Regarding `CCCn1nnc2ccc(NS(=O)(=O)c3ccc(Cl)cc3)cc2c1=O` [Compound 12c, 4-Chloro-N-(4-oxo-3-propyl-3,4-dihydrobenzo[1,2,3]triazin-6-yl)benzenesulfonamide], the melting point is 169 to 171 °C. For the same molecule, in data set [2], the IC50 was 53.76 ± 0.14 µM and the inhibition at 500 µM turned out to be 78.12 ± 0.16%. For the same molecule, the Solubility entry in data set [1] is on record as “Ethanol, DMSO”.
As to `CCCn1nnc2ccc(NS(=O)(=O)c3ccc(Br)cc3)cc2c1=O` [Compound 12d, 4-Bromo-N-(4-oxo-3-propyl-3,4-dihydrobenzo[1,2,3]triazin-6-yl)benzenesulfonamide], in data set [2], half-maximal inhibition (IC50) was put at 55.21 ± 0.12 µM and the inhibition at 500 µM was determined as 79.42 ± 0.15%. Besides, in data set [1], the Solubility entry is “Ethanol, DMSO”.
For the molecule `CCCn1nnc2ccc(NS(=O)(=O)c3ccc([N+](=O)[O-])cc3)cc2c1=O` [Compound 12e, 4-Nitro-N-(4-oxo-3-propyl-3,4-dihydrobenzo[1,2,3]triazin-6-yl)benzenesulfonamide], the melting point is 167 to 169 °C. In addition, in data set [2], the midpoint of inhibition, the IC50, lay at 32.37 ± 0.15 µM and the inhibition at 500 µM came out at 96.27 ± 0.19%. In addition, the Solubility result in data set [1] was “Ethanol, DMSO”.
`CCCCn1nnc2ccc(NS(=O)(=O)c3ccc([N+](=O)[O-])cc3)cc2c1=O` [Compound 12f, 4-Nitro-N-(4-oxo-3-butyl-3,4-dihydrobenzo[1,2,3]triazin-6 yl)benzenesulfonamide] yielded a melting point of 179 to 181 °C. Also, in data set [2], the midpoint of inhibition, the IC50, lay at 37.75 ± 0.11 µM and the inhibition at 500 µM was determined as 93.27 ± 0.14%. For the same molecule, the Solubility entry in data set [1] is reported as “Ethanol, DMSO”.
Consider `C[C@H]1O[C@H](O[C@H]2[C@H](O)[C@@H](O)[C@@H](O[C@H]3[C@H](O)[C@@H](O)C(O)O[C@@H]3CO)O[C@@H]2CO)[C@H](O)[C@@H](O)[C@@H]1N[C@H]1C=C(CO)[C@@H](O)[C@H](O)[C@H]1O` (stereo partly shown) [acarbose, reference compound], for which, in data set [2] (test compound 0.5 mM, pH 6.8, 37 °C), the “% Inhibition at 0.5 mM” value was 92.23 ± 0.16%.
Turning to Isatoic Anhydride [Compound 7], the Solubility result in data set [1] is listed as “Ethanol, DMSO”.
